Tests used:
[1] = biological target: T1, SARS-CoV M^pro (Severe acute respiratory syndrome coronavirus, UniProt P0C6X7); assay: biochemical
[2] = biological target: T1, SARS-CoV M^pro; format: biochemical

| Structure (SMILES) | IC50 [1] [µM] | inhibition type (reciprocal plots, velocity versus substrate concentration) [2] | reversibility (plot of enzyme concentration versus reaction velocity) [2] | α (effect of inhibitor on the affinity of the enzyme for its substrate) [2] |
| --- | --- | --- | --- | --- |
| COC(=O)c1c[nH]c(SSc2ccccc2[N+](=O)[O-])n1 [Compound 3-14, Methyl 2-((2-nitrophenyl)disulfanyl)-1H-imidazole-4-carboxylate] | 2.075 ± 0.016 | – | – | – |
| CCOC(=O)c1ccccc1SSc1nc(C(=O)OC)c[nH]1 [Compound 3-15, Methyl 2-((2-(ethoxycarbonyl)phenyl)disulfanyl)-1H-imidazole-4-carboxylate] | 5.95 ± 0.363 | – | – | – |
| COC(=O)c1c[nH]c(SSc2ccccc2C(=O)OC)n1 [Compound 3-16, Methyl 2-((2-(methoxycarbonyl)phenyl)disulfanyl)-1H-imidazole-4-carboxylate] | 3.96 ± 0.19 | – | – | – |
| COC(=O)c1c[nH]c(SSc2ccc(Cl)cc2)n1 [Compound 3-17, Methyl 2-((4-chlorophenyl)disulfanyl)-1H-imidazole-4-carboxylate] | 4.13 ± 0.094 | – | – | – |
| Clc1ccc(SSc2nnco2)cc1 [Compound 3-31, 2-((4-chlorophenyl)disulfanyl)-1,3,4-oxadiazole] | – | non-competitive inhibitor | reversible | < 1 |
| Brc1ccc(SSc2ncccn2)cc1 [Compound 3-39, 2-((4-bromophenyl)disulfanyl)pyrimidine] | – | non-competitive inhibitor | reversible | < 1 |

— article PMC7115414 (European Journal of Medicinal Chemistry, 2017)
